Source: ChEMBL document CHEMBL4616715, “Discovery of Diphenylacetamides as CXCR7 Inhibitors with Novel β-Arrestin Antagonist Activity” (ACS Med Chem Lett, 2020)

Legend:
[1] = molecular target: C-X-C chemokine receptor type 4 (Homo sapiens, UniProt P61073); assay: Displacement of [125I]-CXCL12 from human CXCR4 receptor expressed in Jurkat cells incubated for 2 hrs by radiolabeled ligand binding assay; assay type: cell-based
[2] = molecular target: T1, Atypical chemokine receptor 3 (Homo sapiens, UniProt P25106); assay: Displacement of [125I]-CXCL12 from human CXCR7 receptor expressed in CHOK1 cell membranes incubated for 2 hrs by radiolabeled ligand binding assay; parameters: species or system CHO-K1
T1 sequence (P25106 whole entry): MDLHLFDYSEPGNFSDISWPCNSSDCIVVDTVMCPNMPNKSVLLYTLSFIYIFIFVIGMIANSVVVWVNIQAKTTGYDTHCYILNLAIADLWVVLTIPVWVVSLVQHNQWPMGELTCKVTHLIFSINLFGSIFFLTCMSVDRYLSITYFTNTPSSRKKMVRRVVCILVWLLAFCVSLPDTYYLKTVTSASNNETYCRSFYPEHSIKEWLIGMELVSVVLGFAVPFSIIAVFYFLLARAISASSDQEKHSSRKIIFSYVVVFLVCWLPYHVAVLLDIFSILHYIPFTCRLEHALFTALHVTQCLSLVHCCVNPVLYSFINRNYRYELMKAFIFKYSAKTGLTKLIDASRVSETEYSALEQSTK

[3] = molecular target: T1, Atypical chemokine receptor 3; assay: Agonist activity at human CXCR7 receptor expressed in CHOK1 cell membranes assessed as increase in beta-arrestin recruitment incubated for 30 mins; assay type: cell-based, CHO-K1

Chain of C-X-C chemokine receptor type 4 (P61073 whole entry): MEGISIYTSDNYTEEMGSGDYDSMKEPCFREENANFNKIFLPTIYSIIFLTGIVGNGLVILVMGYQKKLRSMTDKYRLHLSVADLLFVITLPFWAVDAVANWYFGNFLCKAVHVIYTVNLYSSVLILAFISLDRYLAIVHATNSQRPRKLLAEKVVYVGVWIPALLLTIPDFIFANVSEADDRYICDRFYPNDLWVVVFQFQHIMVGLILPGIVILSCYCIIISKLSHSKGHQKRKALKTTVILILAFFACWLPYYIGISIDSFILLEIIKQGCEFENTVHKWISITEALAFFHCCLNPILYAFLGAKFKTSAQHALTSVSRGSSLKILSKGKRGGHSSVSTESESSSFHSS

IC50 [1] [µM]	Ki ([2]; read-out: Ki) [µM]	EC50 [3] [µM]	Ki ([2]; read-out: pKi (converted)) [µM]	SMILES
> 15				NC(=O)C(c1ccccc1)(c1ccccc1)[C@@H]1CCN(CCOc2ccc(-c3nccs3)cc2)C1
	11.8	> 10		Cc1noc(-c2ccc(OCCN3CC[C@@H](C(C(N)=O)(c4ccccc4)c4ccccc4)C3)cc2)n1
	4.09	> 10	4.17	NC(=O)C(c1ccccc1)(c1ccccc1)[C@@H]1CCN(CCOc2ccc(-c3nnco3)cc2)C1
	6.54	> 10		NC(=O)C(c1ccccc1)(c1ccccc1)[C@@H]1CCN(CCOc2ccc(C3=NCCO3)cc2)C1
